Reference: paper PMC9495676, “Evaluation of the Antimicrobial Properties of a Natural Peptide from Vespa mandarinia Venom and Its Synthetic Analogues as a Possible Route to Defeat Drug-Resistant Microbes” (Biology, 2022)
No end group written: not given here.

How the values were obtained:
P. aeruginosa biofilm = test: Antibiofilm assay (MBIC/MBEC), crystal violet; format: cell-based, Pseudomonas aeruginosa; conditions: LB, 595 nm, nine replicates from three independent experiments; for MBIC: P. aeruginosa biofilm inhibition; for MBEC: P. aeruginosa preformed 24 h biofilm, peptide 24 h at 37 °C
Description: (§1) The minimal biofilm inhibitory concentration assay (MBIC) and minimal biofilm eradication concentration assay (MBEC) were performed on each of the peptides using Gram-positive bacteria cultured in Tryptic Soy Broth (TSB, Sigma-Aldrich, St. Louis, MO, USA) and Gram-negative bacteria cultured in Luria-Bertani broth (LB, Thermo Fisher Scientific, Carlsbad, CA, USA). The seeding concentration in 96-well plates of bacterial suspension was the same as for the anti-bacterial assay, and a UV spectrophotometer set to 550 nm was used to detect OD values. Melittin was used as a positive control. For MBIC, peptide solution was mixed with bacterial suspension at first to test if it could inhibit the growth of biofilm. However, for minimal biofilm eradication (MBEC) assays, biofilm was formed in 96-well plates at 37 °C for 24 h after seeding bacteria; afterwards, it was washed by sterile PBS twice. Peptide solutions, prepared with culture broth, were added to […] the biofilms by incubating at 37 °C for 24 h. Both plates were washed by PBS twice and stained by 125 µL 0.1% crystal violet solution (Sigma-Aldrich, Gillingham, UK). The stain was dissolved in 150 µL 30% acetic acid (Sigma-Aldrich, Gillingham, UK). The absorbance values of 100 µL solution from each well, were analysed by using a Synergy HT plate reader (Biotech, Minneapolis, MN, USA) set at 595 nm.

MRSA (ATCC 12493) = test: MIC/MBC broth dilution assay; format: cell-based, methicillin-resistant Staphylococcus aureus; conditions: 37 °C overnight, nine replicates from three independent experiments; for MIC: broth dilution, Mueller–Hinton broth, 5 × 10^5 CFU/mL, OD 550 nm; for MBC: sub-culture on MHA
Description: (§2) The minimal inhibitory concentration assay (MIC) and minimum bactericidal concentration assay (MBC) of the peptide were carried out using the broth dilution method. Seven microbes, including the Gram-positive bacteria, S. aureus (NCTC 6538), MRSA, (ATCC 12493) and Enterococcus faecalis (E. faecalis) (NCTC 12697); Gram-negative bacteria, E. coli (ATCC 8739), Klebsiella pneumoniae (K. pneumoniae) (ATCC 43816) and Pseudomonas aeruginosa (P. aeruginosa) (ATCC 9027); and a yeast, C. albicans (ATCC 10231), were used in these assays and incubated with peptide at 37 °C overnight. The growth culture media were Yeast Extract Peptone Dextrose for C. albicans and Mueller–Hinton broth for others. The concentration of microbes was detected by measuring OD values through the use of a UV spectrophotometer set to 550 nm. C. albicans assays required 10^6 colony forming units (CFU)/mL, while others were incubated with 10^8 CFU/mL and verified by viable cell counts. All of the inocula were diluted to final concentrations of 5 × 10^5 CFU/mL. The concentration of peptides ranged from 1 µM to 512 µM (C = 1, 2, 4, 8, 16, 32, 64, 128, 256, 512 µM). Two mg/mL of amphotericin B for C. albicans and 2 mg/mL norfloxacin for others were applied as positive controls, and 1% of dimethyl sulphoxide (DMSO) was applied as a vehicle control. The 96-well plates were analysed at 550 nm using an ELISA plate reader (Biolise BioTek EL808, Winooski, VT, USA).
(§3) After analysing the growth situation of microbial cultures from each concentration, 10 µL of the inhibited cultures (the peptide concentration ranges from MIC to maximum concentration) were selected to sub-culture onto the Mueller–Hinton agar (MHA) plates. The plates were incubated overnight at 37 °C. After incubation, the lowest concentration on the MHA plates with no bacterial growth was regarded as the MBC value.

horse erythrocytes = test: Haemolysis assay; format: cell-based; conditions: 37 °C, 2 h; for HC50 (peptide concentration that caused 50% lysis of horse red blood cells): 4% (v/v) defibrinated horse erythrocytes, 550 nm, normalised to 1% Triton X-100, calculated from the haemolysis curve
Description: Defibrinated horse erythrocytes (TCS Biosciences Ltd., Buckingham, UK) were used in the haemolysis assay. Peptides, from 1 μM to 512 μM, were tested with a 4% (v/v) erythrocyte suspension and were incubated at 37 °C for 2 h, while 1% Triton X-100 (Sigma-Aldrich, St. Louis, MO, USA) was acted as a positive control and phosphate-buffered saline (PBS) was used as a negative control. The sample supernatants were analysed at 550 nm on an ELISA plate reader (Biolise BioTek EL808, Winooski, VT, USA).

E. coli biofilm = test: Antibiofilm assay (MBIC/MBEC), crystal violet; format: cell-based, Escherichia coli; conditions: LB, 595 nm, nine replicates from three independent experiments; for MBIC: E. coli biofilm inhibition; for MBEC: E. coli preformed 24 h biofilm, peptide 24 h at 37 °C
Description: as §1

[1] = tested on: K. pneumoniae (ATCC 43816); test: MIC/MBC broth dilution assay; format: cell-based, Klebsiella pneumoniae; conditions: 37 °C overnight, nine replicates from three independent experiments; for MIC: broth dilution, Mueller–Hinton broth, 5 × 10^5 CFU/mL, OD 550 nm
Description: as §2, §3

K. pneumoniae biofilm = test: Antibiofilm assay (MBIC/MBEC), crystal violet; format: cell-based, Klebsiella pneumoniae; conditions: LB, 595 nm, nine replicates from three independent experiments; for MBIC: K. pneumoniae biofilm inhibition; for MBEC: K. pneumoniae preformed 24 h biofilm, peptide 24 h at 37 °C
Description: as §1

E. faecalis (NCTC 12697) = test: MIC/MBC broth dilution assay; format: cell-based, Enterococcus faecalis; conditions: 37 °C overnight, nine replicates from three independent experiments; for MIC: broth dilution, Mueller–Hinton broth, 5 × 10^5 CFU/mL, OD 550 nm; for MBC: sub-culture on MHA
Description: as §2, §3

E. coli (ATCC 8739) = test: MIC/MBC broth dilution assay; format: cell-based, Escherichia coli; conditions: 37 °C overnight, nine replicates from three independent experiments; for MIC: broth dilution, Mueller–Hinton broth, 5 × 10^5 CFU/mL, OD 550 nm; for MBC: sub-culture on MHA
Description: as §2, §3

MRSA biofilm = test: Antibiofilm assay (MBIC/MBEC), crystal violet; format: cell-based, methicillin-resistant Staphylococcus aureus; conditions: TSB, 595 nm, nine replicates from three independent experiments; for MBIC: MRSA biofilm inhibition; for MBEC: MRSA preformed 24 h biofilm, peptide 24 h at 37 °C
Description: as §1

S. aureus biofilm = test: Antibiofilm assay (MBIC/MBEC), crystal violet; format: cell-based, Staphylococcus aureus; conditions: TSB, 595 nm, nine replicates from three independent experiments; for MBIC: S. aureus biofilm inhibition; for MBEC: S. aureus preformed 24 h biofilm, peptide 24 h at 37 °C
Description: as §1

S. aureus (NCTC 6538) = test: MIC/MBC broth dilution assay; format: cell-based, Staphylococcus aureus; conditions: 37 °C overnight, nine replicates from three independent experiments; for MIC: broth dilution, Mueller–Hinton broth, 5 × 10^5 CFU/mL, OD 550 nm; for MBC: sub-culture of inhibited cultures on MHA
Description: as §2, §3

C. albicans (ATCC 10231) = test: MIC/MBC broth dilution assay; format: cell-based, Candida albicans; conditions: 37 °C overnight, nine replicates from three independent experiments; for MIC: broth dilution, Yeast Extract Peptone Dextrose, 5 × 10^5 CFU/mL, OD 550 nm; for MBC: sub-culture on agar plates
Description: as §2, §3

E. faecalis biofilm = test: Antibiofilm assay (MBIC/MBEC), crystal violet; format: cell-based, Enterococcus faecalis; conditions: TSB, 595 nm, nine replicates from three independent experiments; for MBIC: E. faecalis biofilm inhibition; for MBEC: E. faecalis preformed 24 h biofilm, peptide 24 h at 37 °C
Description: as §1

[2] = tested on: P. aeruginosa (ATCC 9027); test: MIC/MBC broth dilution assay; format: cell-based, Pseudomonas aeruginosa; conditions: 37 °C overnight, nine replicates from three independent experiments; for MIC: broth dilution, Mueller–Hinton broth, 5 × 10^5 CFU/mL, OD 550 nm; for MBC: sub-culture on MHA
Description: as §2, §3

Gram-positive bacteria = test: MIC broth dilution assay, summary over Gram-positive bacteria; format: cell-based; conditions: range over S. aureus, MRSA, E. faecalis
Description: as §2, with “Two mg/mL of amphotericin B for C. albicans and 2 mg/mL norfloxacin for others were applied as positive controls, and 1% of dimethyl sulphoxide (DMSO) was applied as a vehicle control.” left out, “USA). […]” for “USA).”

| Molecule | MBIC (P. aeruginosa biofilm) | MBEC (P. aeruginosa biofilm) | MIC (MRSA (ATCC 12493)) | MBC (MRSA (ATCC 12493)) | HC50 (peptide concentration that caused 50% lysis of horse red blood cells) (horse erythrocytes) | MBIC (E. coli biofilm) | MBEC (E. coli biofilm) | MIC [1] | MBIC (K. pneumoniae biofilm) | MBEC (K. pneumoniae biofilm) | MIC (E. faecalis (NCTC 12697)) | MBC (E. faecalis (NCTC 12697)) | MIC (E. coli (ATCC 8739)) | MBIC (MRSA biofilm) | MBEC (MRSA biofilm) | MBIC (S. aureus biofilm) | MBEC (S. aureus biofilm) | MBC (S. aureus (NCTC 6538)) | MBIC (E. faecalis biofilm) | MIC [2] | other results |
| --- | --- | --- | --- | --- | --- | --- | --- | --- | --- | --- | --- | --- | --- | --- | --- | --- | --- | --- | --- | --- | --- |
| FLGIIGKLLSGLL-NH2 [VM-3G] | >512/>512 µM | >512/>512 µM | 2 µM | 2 µM | 9.686 µM | 256 µM | > 512 µM | >512 µM | >512/>512 µM | >512/>512 µM | 4 µM | 4 µM | 64 µM | 2 µM | 32 µM | 2 µM | 32 µM | 1 µM | 8 µM | 128 µM | MBC (E. coli (ATCC 8739)): 128 µM; MIC (S. aureus (NCTC 6538)): 1 µM; MIC (C. albicans (ATCC 10231)): >512 µM; MBEC (E. faecalis biofilm): > 512 µM; MBC [2]: 128 µM |
| FLYIIGKLLSGLL-NH2 [VM-3Y] | >512/>512 µM | >512/>512 µM |  | 2/2 µM | 211.2 µM | >512/>512 µM | >512/>512 µM | >512 µM | >512/>512 µM | >512/>512 µM | 4 µM | 4 µM | >512 µM | 2 µM | 64 µM | 2 µM | 128 µM | 2/2 µM | 64 µM | >512 µM | MIC (C. albicans (ATCC 10231)): >512 µM; MBEC (E. faecalis biofilm): > 512 µM |
| FLWIIGKLLSGLL-NH2 [VM-3W] | >512/>512 µM | >512/>512 µM | 2 µM | 2 µM | 9.682 µM | >512/>512 µM | >512/>512 µM | >512 µM | >512/>512 µM | >512/>512 µM | 4 µM | 4 µM | >512 µM | 4 µM | 128 µM | 4 µM | 128 µM | 1 µM | 16 µM | >512 µM | MIC (S. aureus (NCTC 6538)): 1 µM; MIC (C. albicans (ATCC 10231)): >512 µM; MBEC (E. faecalis biofilm): > 512 µM |
| FLPIIGKLLSGLL-NH2 [VM] | >512/>512 µM | >512/>512 µM | 4 µM | 4 µM | 44.43 µM | >512/>512 µM | >512/>512 µM | >512 µM | >512/>512 µM | >512/>512 µM | 16 µM | 16 µM | 256 µM | 8 µM | 64 µM | 8 µM | 64 µM | 4 µM |  | >512 µM | maximum concentration that caused less than 10% haemolysis (horse erythrocytes; 4% horse erythrocytes): 16 µM; MICs against Gram-positive bacteria (Gram-positive bacteria): 4 to 16 µM; MBC (E. coli (ATCC 8739)): 256 µM; MIC (S. aureus (NCTC 6538)): 4 µM; MBC (C. albicans (ATCC 10231)): 32/32 µM |
| CC[C@H](C)[C@H](NC(=O)CN)C(=O)NCC(=O)N[C@@H](C)C(=O)N[C@H](C(=O)N[C@@H](CC(C)C)C(=O)N[C@@H](CCCCN)C(=O)N[C@H](C(=O)N[C@@H](CC(C)C)C(=O)N[C@H](C(=O)N[C@H](C(=O)NCC(=O)N[C@@H](CC(C)C)C(=O)N1CCC[C@H]1C(=O)N[C@@H](C)C(=O)N[C@@H](CC(C)C)C(=O)N[C@H](C(=O)N[C@@H](CO)C(=O)N[C@@H](Cc1c[nH]c2ccccc12)C(=O)N[C@H](C(=O)N[C@@H](CCCCN)C(=O)N[C@@H](CCCNC(=N)N)C(=O)N[C@@H](CCCCN)C(=O)N[C@@H](CCCNC(=N)N)C(=O)N[C@@H](CCC(N)=O)C(=O)N[C@@H](CCC(N)=O)C(N)=O)[C@@H](C)CC)[C@@H](C)CC)[C@@H](C)O)[C@@H](C)O)C(C)C)C(C)C [Melittin, reference compound] | 64 µM |  |  |  |  | 32 µM |  |  | 128 µM |  |  |  |  | 8 µM |  | 4 µM |  |  | 8 µM |  |  |
| FLKIIGKLLSGLL-NH2 [VM-3K] | 32 µM | > 512 µM | 1 µM | 2 µM | 11.2 µM | 16 µM | > 512 µM | 32 µM | 64 µM | > 512 µM | 2/2 µM |  | 8 µM | 2 µM | 64 µM | 2 µM | 32 µM | 1 µM | 4 µM | 16 µM | MBC ([1]; sub-culture on MHA): 32 µM; MBC (E. coli (ATCC 8739)): 8 µM; MIC (S. aureus (NCTC 6538)): 1 µM; MIC (C. albicans (ATCC 10231)): 32 µM; MBC (C. albicans (ATCC 10231)): 32 µM; MBEC (E. faecalis biofilm): > 512 µM; MBC [2]: 16 µM |
